Experimental data from patent US11066414B2, “Cot modulators and methods of use thereof” (Gilead Sciences, Inc., priority 2015, dated 2021).
Read-outs that look alike come from different tables or passages of the source.

Assays:
[1] = target: Human Cot (Homo sapiens (Human), UniProt P41279); experiment: High Throughput Cot Biochemical Assay
[2] = test system: TNFα; experiment: Cot Monocyte TNFα Cell Based Assay
[3] = IC50 HTRF, Cot HTRF (TR-FRET) biochemical assay
[4] = Homo sapiens, Monocyte, read-out: EC50 TNF, LPS-stimulated human monocytes, TNFα
[5] = read-out: IC50 HTRF, Cot HTRF (TR-FRET) biochemical assay
[6] = read-out: EC50 TNF, LPS-stimulated human monocytes, TNFα
[7] = IC50 HTRF, Cot HTRF (TR-FRET KinEASE) biochemical assay, 400 μM ATP
[8] = Homo sapiens, Monocyte, read-out: EC50 TNF, LPS-stimulated human monocytes, TNFα TR-FRET
[9] = read-out: IC50 HTRF, Cot HTRF (TR-FRET KinEASE) biochemical assay, 400 μM ATP
[10] = read-out: EC50 TNF, LPS-stimulated human monocytes, TNFα TR-FRET

Human Cot, sequence (P41279 30-397): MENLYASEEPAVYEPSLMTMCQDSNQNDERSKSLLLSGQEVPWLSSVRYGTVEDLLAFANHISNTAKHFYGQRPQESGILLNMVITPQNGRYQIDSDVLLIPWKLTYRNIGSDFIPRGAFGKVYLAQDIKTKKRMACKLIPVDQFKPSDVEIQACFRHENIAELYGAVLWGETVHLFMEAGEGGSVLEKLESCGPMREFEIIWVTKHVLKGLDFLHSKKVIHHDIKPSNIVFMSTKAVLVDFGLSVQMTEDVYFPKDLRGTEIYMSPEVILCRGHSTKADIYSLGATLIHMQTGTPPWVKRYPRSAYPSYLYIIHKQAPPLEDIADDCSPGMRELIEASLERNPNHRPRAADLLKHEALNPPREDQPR

SMILES	IC50 [1, 3] [nM]	EC50 [2, 4] [nM]	further results
N#Cc1cnc2c(Cl)cc(N[C@@H](c3cccnc3)c3c[nH]nn3)cc2c1Nc1cccc(Cl)c1F [Example 257, (S)-8-chloro-4-((3-chloro-2-fluorophenyl)amino)-6-((pyridin-3-yl(1H-1,2,3-triazol-4-yl)methyl)-amino)quinoline-3-carbonitrile]	6	212	
CC(C)(C)N1CCC(n2cc([C@@H](Nc3cc(Cl)c4ncc(C#N)c(Nc5ccc(Cl)c(Cl)c5F)c4c3)c3csc4c3CCN(C3COC3)C4)nn2)CC1 [Example 223, (S)-6-(((1-(1-(tert-butyl)piperidin-4-yl)-1H-1,2,3-triazol-4-yl)(6-(oxetan-3-yl)-4,5,6,7-tetrahydrothieno[2,3-c]pyridin-3-yl)methyl)amino)-8-chloro-4-((3,4-dichloro-2-fluorophenyl)amino)quinoline-3-carbonitrile]	7	94	
Cc1nc(F)ccc1[C@H](Nc1cc(Cl)c2ncc(C#N)c(NCC(C)(C)C)c2c1)c1cn([C@@H]2C[C@@H]2F)nn1 [Example 579, 8-chloro-6-(((S)-(6-fluoro-2-methylpyridin-3-yl)(1-((lR,2S)-2-fluorocyclopropyl)-1H-1,2,3-triazol-4-yl)methyl)amino)-4-(neopentylamino)quinoline-3-carbonitrile]			IC50 [1, 5]: 2 nM; EC50 [2, 6]: 24 nM
Cc1nc(F)ccc1[C@H](Nc1cc(C#N)c2ncc(C#N)c(NCC(C)(C)C)c2c1)c1cn(C2(C(F)F)CC2)nn1 [Example 473, (S)-6-(((1-(1-(difluoromethyl)cyclopropyl)-1H-1,2,3-triazol-4-yl)(6-fluoro-2-methylpyridin-3-yl)methyl)amino)-4-(neopentylamino)quinoline-3,8-dicarbonitrile]	2	26	
CC(C)(CNc1c(C#N)cnc2c(Cl)cc(N[C@H](c3cn(C45CC(C4)C5)nn3)c3cccc4ncccc34)cc12)C(F)(F)F [Example 799, (S)-6-(((1-(bicyclo[1.1.1]pentan-1-yl)-1H-1,2,3-triazol-4-yl)(quinolin-5-yl)methyl)amino)-8-chloro-4-((3,3,3-trifluoro-2,2-dimethylpropyl)amino)quinoline-3-carbonitrile]	4	46	
CC(C)(C)CNc1c(C#N)cnc2c(C#N)cc(N[C@@H](c3ccc4nccn4c3)c3cn(C4(C(F)(F)F)CC4)nn3)cc12 [Example 822, (S)-6-((imidazo[1,2-a]pyridin-6-yl(1-(1-(trifluoromethyl)cyclopropyl)-1H-1,2,3-triazol-4-yl)methyl)amino)-4-(neopentylamino)quinoline-3,8-dicarbonitrile]			IC50 [1, 7]: 10 nM; EC50 [2, 8]: 687 nM
CC(C)(C)CNc1c(C#N)cnc2c(Cl)cc(N[C@H](c3cn(C4(C(N)=O)CCC4)nn3)c3cccc4cnccc34)cc12 [Example 562, (S)-1-(4-(((8-chloro-3-cyano-4-(neopentyl-amino)quinolin-6-yl)amino)(isoquinolin-5-yl)methyl)-1H-1,2,3-triazol-1-yl)cyclobutane-1-carboxamide]	2	231	
COc1cc([C@H](Nc2cc(Cl)c3ncc(C#N)c(NCC(C)(C)C)c3c2)c2cn(C3(C(F)(F)F)CC3)nn2)ccn1 [Example 941, (S)-8-chloro-6-(((2-methoxypyridin-4-yl)(1-(1-(trifluoromethyl)cyclopropyl)-1H-1,2,3-triazol-4-yl)methyl)amino)-4-(neopentylamino)quinoline-3-carbonitrile]			IC50 [1, 7]: 64 nM; EC50 [2, 8]: 804 nM
Cc1nc(F)ccc1[C@H](Nc1cc(C#N)c2ncc(C#N)c(NCC(C)(C)C)c2c1)c1cn(C2(CO)CC2)nn1 [Example 610, (S)-6-(((6-fluoro-2-methylpyridin-3-yl)(1-(1-(hydroxymethyl)cyclopropyl)-1H-1,2,3-triazol-4-yl)methyl)amino)-4-(neopentylamino)quinoline-3,8-dicarbonitrile]	2	199	
CC(C)(C)CNc1c(C#N)cnc2c(C#N)cc(N[C@H](c3cn(C4(C(F)(F)F)CC4)nn3)c3cccc4[nH]ncc34)cc12 [Example 472, (S)-6-(((1H-indazol-4-yl)(1-(1-(trifluoro-methyl)cyclopropyl)-1H-1,2,3-triazol-4-yl)methyl)amino)-4-(neopentylamino)-quinoline-3,8-dicarbonitrile]	4	78	
COc1nccc2c([C@H](Nc3cc(C#N)c4ncc(C#N)c(NCC(C)(C)C(F)(F)F)c4c3)c3cn(C4(C)CC4)nn3)cccc12 [Example 819, (S)-6-(((1-methoxylsoquinolin-5-yl)(1-(1-methylcyclopropyl)-1H-1,2,3-triazol-4-yl)methyl)amino)-4-((3,3,3-trifluoro-2,2-dimethylpropyl)amino)quinoline-3,8-dicarbonitrile]			IC50 [1, 9]: 2 nM; EC50 [2, 10]: 28 nM
COc1c([C@@H](Nc2cc(C#N)c3ncc(C#N)c(NCC(C)(C)C)c3c2)c2ccc(F)nc2C)nnn1C1(C(F)F)CC1 [Example 964, (S)-6-(((1-(1-(difluoromethyl)cyclopropyl)-5-methoxy-1H-1,2,3-triazol-4-yl)(6-fluoro-2-methylpyridin-3-yl)methyl)amino)-4-(neopentylamino)quinoline-3,8-dicarbonitrile]			IC50 [1, 7]: 3 nM; EC50 [2, 8]: 105 nM
[2H][C@](Nc1cc(C#N)c2ncc(C#N)c(NCC(C)(C)C)c2c1)(c1ccc(F)nc1)c1cn(C)nn1 [Example 99, (S)-6-(((6-fluoropyridin-3-yl)(1-methyl-1H-1,2,3-triazol-4-yl)methyl-d)amino)-4-(neopentylamino)quinoline-3,8-dicarbonitrile]	3	143	
Cc1nc(F)ccc1C(Nc1cc(Cl)c2ncc(C#N)c(NCC(C)(C)C)c2c1)c1cn(C)nn1 (stereo not drawn) [Example 791, 8-chloro-6-(((6-fluoro-2-methylpyridin-3-yl)(1-methyl-1H-1,2,3-triazol-4-yl)methyl)amino)-4-(neopentylamino)quinoline-3-carbonitrile]	22	242	
CC(C)(C)CNc1c(C#N)cnc2c(C#N)cc(N[C@H](c3cn(C4(C(F)F)CC4)nn3)c3ccc(F)c4ncccc34)cc12 [Example 671]			IC50 [1, 5]: 2 nM; EC50 [2, 6]: 32 nM
Cc1scnc1[C@H](Nc1cc(Cl)c2ncc(C#N)c(NCC(C)(C)C)c2c1)c1cn(C2(C(F)F)CC2)nn1 [Example 620, (S)-8-chloro-6-(((1-(1-(difluoromethyl)cyclo-propyl)-1H-1,2,3-triazol-4-yl)(5-methylthiazol-4-yl)methyl)amino)-4-(neopentylamino)quinoline-3-carbonitrile]	102	1000	
Cc1nc(F)ccc1[C@H](Nc1cc(C#N)c2ncc(C#N)c(NCC(C)(C)C(F)(F)F)c2c1)c1cn(C2(C(F)F)CC2)nn1 [Example 832, (S)-6-(((1-(l-(difluoromethyl)-cyclopropyl)-1H-1,2,3-triazol-4-yl)(6-fluoro-2-methylpyridin-3-yl)methyl)amino)-4-((3,3,3-trifluoro-2,2-dimethylpropyl)amino)quinoline-3,8-dicarbonitrile]			IC50 [1, 9]: 2 nM; EC50 [2, 10]: 44 nM
Cn1ccc2c([C@H](Nc3cc(C#N)c4ncc(C#N)c(NCC(C)(C)C)c4c3)c3cn(C4(C)COC4)nn3)cccc2c1=O [Example 853, (S)-6-(((2-methyl-1-oxo-1,2-dihydroisoquinolin-5-yl)(1-(3-methyloxetan-3-yl)-1H-1,2,3-triazol-4-yl)methyl)amino)-4-(neopentylamino)quinoline-3,8-dicarbonitrile]			IC50 [1, 7]: 1 nM; EC50 [2, 8]: 98 nM
N#Cc1cnc2c(Cl)cc(N[C@@H](c3cccnc3)c3cn(CCF)nn3)cc2c1Nc1cnc(F)c(F)c1 [Example 189, (S)-8-chloro-4-((5,6-difluoropyridin-3-yl)amino)-6-(((1-(2-fluoroethyl)-1H-1,2,3-triazol-4-yl)(pyridin-3-yl)methyl)amino)quinoline-3-carbonitrile]	8	1060	
N#Cc1cnc2c(Cl)cc(N[C@H](c3c[nH]nn3)c3ccc(F)nc3F)cc2c1Nc1cnc(F)c(F)c1 [Example 154, (S)-8-chloro-6-(((2,6-difluoropyridin-3-yl)(1H-1,2,3-triazol-4-yl)methyl)amino)-4-((5,6-difluoropyridin-3-yl)amino)quinoline-3-carbonitrile]	26	1670	
Cc1nc(F)ccc1[C@H](Nc1cc(F)c2ncc(C#N)c(NCC(C)(C)C)c2c1)c1cn(C2(C(F)(F)F)CC2)nn1 [Example 513, (S)-8-fluoro-6-(((6-fluoro-2-methylpyridin-3-yl)(1-(1-(trifluoromethyl)cyclopropyl)-1H-1,2,3-triazol-4-yl)methyl)amino)-4-(neopentylamino)quinoline-3-carbonitrile]	9	154	
Cc1ncccc1[C@H](Nc1cc(Cl)c2ncc(C#N)c(Nc3ccc(F)c(Cl)c3)c2c1)c1cn(C2CCN(C(C)(C)C)CC2)nn1 [Example 283]			IC50 [1, 5]: 3 nM; EC50 [2, 6]: 50 nM
Cc1ccc([C@H](Nc2cc(C#N)c3ncc(C#N)c(NCC(C)(C)C)c3c2)c2cn(C3(C(F)(F)F)CC3)nn2)c(F)n1 [Example 690, (S)-6-(((2-fluoro-6-methylpyridin-3-yl)(1-(1-(trifluoromethyl)cyclopropyl)-1H-1,2,3-triazol-4-yl)methyl)amino)-4-(neopentylamino)quinoline-3,8-dicarbonitrile]	21	250	
Cn1ccc2c([C@H](Nc3cc(C#N)c4ncc(C#N)c(NCC(C)(C)C)c4c3)c3cn(C4(C(F)F)CC4)nn3)cccc2c1=O [Example 871]			IC50 [1, 9]: 1 nM; EC50 [2, 10]: 32 nM
